US11739074B2, “Ras inhibitors” (Revolution Medicines, Inc., priority 2019, dated 2023)
Like-named read-outs stand apart in the source and are kept apart here.

How the values were obtained:
[1] = ester bond, EDCI/HOBt/DIPEA, DCM, 25.0 °C, 16.0 h
[2] = ester bond, 18-membered ring, EDCI/HOBt/DIEA, DCM, 25.0 °C
[3] = test system: SW1573; details: cited from earlier work
[4] = from CCn1c(-c2cccnc2[C@H](C)OC)c(CC(C)(C)CO)c2cc(-c3cc(C[C@H](NC(=O)OC(C)(C)C)C(=O)N4CCC[C@@H](C(=O)O)N4)cc(O[Si](C(C)C)(C(C)C)C(C)C)c3)ccc21, 15.3 mM

CCn1c(-c2cccnc2[C@H](C)OC)c2c3cc(ccc31)-c1cc(CF)cc(c1)C[C@H](NC(=O)OC(C)(C)C)C(=O)N1CCC[C@H](N1)C(=O)OCC(C)(C)C2 showed a ring closure, yield of all isomers ([1]; from CCn1c(-c2cccnc2[C@H](C)OC)c(CC(C)(C)CO)c2cc(-c3cc(CF)cc(C[C@H](NC(=O)OC(C)(C)C)C(=O)N4CCC[C@@H](C(=O)O)N4)c3)ccc21, 23.73 mM) of 65% and a ring closure, isolated yield ([2]; from CCn1c(-c2cccnc2[C@H](C)OC)c(CC(C)(C)CO)c2cc(-c3cc(CF)cc(C[C@H](NC(=O)OC(C)(C)C)C(=O)N4CCC[C@@H](C(=O)O)N4)c3)ccc21, 23.7 mM) of 65%.
For CCn1c(-c2cccnc2[C@H](C)OC)c2c3cc(ccc31)-c1cc(cc(C(F)F)c1)C[C@H](NC(=O)OC(C)(C)C)C(=O)N1CCC[C@H](N1)C(=O)OCC(C)(C)C2, the ring closure, yield of all isomers ([1]; from CCn1c(-c2cccnc2[C@H](C)OC)c(CC(C)(C)CO)c2cc(-c3cc(C[C@H](NC(=O)OC(C)(C)C)C(=O)N4CCC[C@@H](C(=O)O)N4)cc(C(F)F)c3)ccc21, 21.05 mM) was 71.6% and the ring closure, isolated yield ([2]; from CCn1c(-c2cccnc2[C@H](C)OC)c(CC(C)(C)CO)c2cc(-c3cc(C[C@H](NC(=O)OC(C)(C)C)C(=O)N4CCC[C@@H](C(=O)O)N4)cc(C(F)F)c3)ccc21, 21.0 mM) was 71.6%.
For CCn1c(-c2cccnc2[C@H](C)OC)c2c3cc(ccc31)-c1cc(cc(O[Si](C(C)C)(C(C)C)C(C)C)c1)C[C@H](NC(=O)OC(C)(C)C)C(=O)N1CCC[C@H](N1)C(=O)OCC(C)(C)C2, the ring closure, yield of all isomers [1, 4] was 42% and the ring closure, isolated yield [2, 4] was 42%.
For C=CC(=O)N1CCN(c2nc(=O)n(-c3c(C)ccnc3C(C)C)c3nc(-c4c(O)cccc4F)c(F)cc23)[C@@H](C)C1 [AMG510], the “sensitivity of cell line SW1573 to inhibitor” value [3] is listed as “insensitive”.
